Source: the supplement of paper PMC11451515

Test system: P12-Ichikawa
Test: cell viability relative to DMSO control; higher = less cytotoxic
Details: 48 h
How it was run: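 Three leukemia lines were tested: NOMO1 and SEM at 500 cells/well and P12-Ichikawa at 1000 cells/well. Each was adapted for at least four passages in each medium and seeded in 5 μl in 1536-well plates, and library compounds in DMSO were pin-dosed from 47 μM to 0.79 nM in 11 threefold steps. After 48 h at 37°C, CellTiter-Glo One luminescence was read. Viability is a percentage relative to DMSO wells on each plate, with cell-free wells as background.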

[1] = HPLM + 10% dialyzed FBS, 0.000781 µM
[2] = HPLM + 10% dialyzed FBS, 0.00234 µM
[3] = HPLM + 10% dialyzed FBS, 0.00702 µM
[4] = HPLM + 10% dialyzed FBS, 0.0211 µM
[5] = HPLM + 10% dialyzed FBS, 0.0632 µM
[6] = HPLM + 10% dialyzed FBS, 0.19 µM
[7] = HPLM + 10% dialyzed FBS, 0.569 µM
[8] = HPLM + 10% dialyzed FBS, 1.71 µM
[9] = HPLM + 10% dialyzed FBS, 5.12 µM
[10] = HPLM + 10% dialyzed FBS, 15.4 µM
[11] = HPLM + 10% dialyzed FBS, 46.1 µM
[12] = RPMI 5 mM glucose + 10% FBS, 0.000781 µM
[13] = RPMI 5 mM glucose + 10% FBS, 0.00234 µM
[14] = RPMI 5 mM glucose + 10% FBS, 0.00702 µM
[15] = RPMI 5 mM glucose + 10% FBS, 0.0211 µM
[16] = RPMI 5 mM glucose + 10% FBS, 0.0632 µM
[17] = RPMI 5 mM glucose + 10% FBS, 0.19 µM
[18] = RPMI 5 mM glucose + 10% FBS, 0.569 µM
[19] = RPMI 5 mM glucose + 10% FBS, 1.71 µM
[20] = RPMI 5 mM glucose + 10% FBS, 5.12 µM
[21] = RPMI 5 mM glucose + 10% FBS, 15.4 µM
[22] = RPMI 5 mM glucose + 10% FBS, 46.1 µM
[23] = RPMI 5 mM glucose + 10% dialyzed FBS, 0.000781 µM
[24] = RPMI 5 mM glucose + 10% dialyzed FBS, 0.00234 µM
[25] = RPMI 5 mM glucose + 10% dialyzed FBS, 0.00702 µM
[26] = RPMI 5 mM glucose + 10% dialyzed FBS, 0.0211 µM
[27] = RPMI 5 mM glucose + 10% dialyzed FBS, 0.0632 µM
[28] = RPMI 5 mM glucose + 10% dialyzed FBS, 0.19 µM
[29] = RPMI 5 mM glucose + 10% dialyzed FBS, 0.569 µM
[30] = RPMI 5 mM glucose + 10% dialyzed FBS, 1.71 µM
[31] = RPMI 5 mM glucose + 10% dialyzed FBS, 5.12 µM
[32] = RPMI 5 mM glucose + 10% dialyzed FBS, 15.4 µM
[33] = RPMI 5 mM glucose + 10% dialyzed FBS, 46.1 µM

Compound	cell viability [1] [%]	cell viability [2] [%]	cell viability [3] [%]	cell viability [4] [%]	cell viability [5] [%]	cell viability [6] [%]	cell viability [7] [%]	cell viability [8] [%]	cell viability [9] [%]	cell viability [10] [%]	cell viability [11] [%]	cell viability [12] [%]	cell viability [13] [%]	cell viability [14] [%]	cell viability [15] [%]	cell viability [16] [%]	cell viability [17] [%]	cell viability [18] [%]	cell viability [19] [%]	cell viability [20] [%]	cell viability [21] [%]	cell viability [22] [%]	cell viability [23] [%]	cell viability [24] [%]	cell viability [25] [%]	cell viability [26] [%]	cell viability [27] [%]	cell viability [28] [%]	cell viability [29] [%]	cell viability [30] [%]	cell viability [31] [%]	cell viability [32] [%]	cell viability [33] [%]
CC(C)c1cnn2c(NCc3ccccc3)cc(NCCCCCCN)nc12	110	124	131	125	122	127	116	113	116	110	76.8	–	–	–	–	–	–	–	–	–	–	–	–	–	–	–	–	–	–	–	–	–	–
C[C@]12CC[C@@H]3c4ccc(O)cc4CC[C@H]3[C@@H]1C[C@@H](O)[C@@H]2O	117	115	114	120	113	111	119	110	112	104	104	120	115	116	114	125	129	126	124	123	108	107	116	120	125	123	115	117	123	118	109	114	105
COC1=CC=C(C=C1O)C/2=C/C(=O)C3=C(O2)C=C(O)C=C3O	96.2	95.5	96.4	97	95.2	90.3	86.4	90.8	86.7	91.9	88.4	98	92.1	95.3	98.9	104	92.5	90.4	87.5	87.3	91.3	89.9	86.8	83.9	81.7	76.9	78.1	76.5	77.9	79.5	79.5	80.7	80.7
COc1cccc([C@@H](C)NCCCc2ccccc2Cl)c1	93.8	98	89.9	93.3	97.5	99.9	94.4	92.7	99.3	99.2	106	95	94.2	94.3	85.9	96.9	91.9	94.1	92.8	90.6	94.9	103	83.1	87.5	85.3	88.1	91.3	90.7	87.4	91.4	95.2	98.1	99.8
CC(C)c1cc(C(=O)N2Cc3ccc(CN4CCN(C)CC4)cc3C2)c(O)cc1O	118	121	123	106	124	109	89.3	65.8	54.7	52.8	51.4	115	119	115	105	114	97.7	56.4	52.5	41.3	40.7	39.8	119	122	125	112	125	112	65.3	50	43.3	44.5	43.3
Cc1cnc(C(=O)O)c[n+]1[O-]	115	120	112	115	112	116	114	119	111	107	105	122	128	124	126	120	127	125	127	116	119	100	121	130	123	111	117	123	120	108	115	109	102
C[S+](=O)([O-])c1cccc(CNc2nc(Nc3ccc4c(c3)CCC(=O)N4)ncc2C(F)(F)F)c1	114	122	112	111	110	107	106	102	106	96.7	14.3	119	120	113	120	108	111	113	103	101	89.9	25.9	110	120	120	113	111	110	106	114	104	94.3	32.3
C[C@H]1[C@@H](C(=O)C[C@H]2O[C@@H]3O[C@]4(C)CC[C@H]5[C@H](C)CC[C@@H]([C@H]2C)[C@@]35OO4)O[C@@H]2O[C@]3(C)CC[C@H]4[C@H](C)CC[C@@H]1[C@@]24OO3	117	113	116	124	115	119	113	110	90.1	86.3	14.4	117	130	121	121	120	119	102	104	102	82.7	9.74	120	111	112	113	110	101	98.8	102	93.6	56.1	15.4
